Source: article PMC12713470, “Design and Synthesis of Novel Chalcone Derivatives Targeting Bladder and Liver Cancer: Cytotoxicity Evaluation and Preliminary Mechanistic Studies” (ACS Omega, 2025)

How the values were obtained:
[1] = test system: HepG2: human liver hepatocellular carcinoma cells; test: MTT cytotoxicity assay on HepG2 cells; format: cell-based
Experimental: (§1) Cytotoxicity was determined using the MTT colorimetric assay, and half-maximal inhibitory concentrations (IC50, μM) were obtained for all cell lines (Table ). The selectivity index (SI) was calculated as the ratio of IC50 MRC-5/IC50 cancer cell line. Doxorubicin was employed as a positive control due to its broad-spectrum clinical use, either alone or in combination, against hepatocellular, ovarian, cervical, and bladder cancers. −
(§2) In vitro biological assays were performed by using five human cell lines for cytotoxicity evaluation. HepG2 cells (ATCC HB-8065), derived from a human hepatocellular carcinoma of the liver (person), were cultured in Dulbecco’s modified Eagle medium (DMEM) supplemented with 5% fetal bovine serum (FBS), penicillin/streptomycin (100 IU/mL), and amphotericin B (5 μg/mL), in a humidified incubator with 5% CO2 at 37 °C. These cells were plated at a concentration of 2.0 × 10^4 cells/well in 96-well microplates. MRC-5 cells (ATCC CCL-171), derived from human lung fibroblasts of a […] fetus, were cultured under the same conditions and plated at 1.0 × 10^4 cells/well. T24 cells (ATCC HTB-4), established from a transitional cell carcinoma of the bladder (person), were also cultured under identical conditions and plated at a density of 1.0 × 10^4 cells/well. TOV-21G cells (ATCC CRL-11730), derived from a primary malignant ovarian adenocarcinoma (person), were maintained in DMEM with the same supplementation and environmental conditions and plated at 5.0 × 10^4 cells/well. […]
(§3) HeLa, HepG2, MRC-5, T24, and TOV-21G cells were suspended in a culture medium supplemented with 5% fetal bovine serum (FBS) and seeded into 96-well microplates. The plates were incubated under a humidified atmosphere containing 5% CO2 at 37 °C for 24 h, allowing for adherence and monolayer formation. , Eight serial dilutions of the test samples, previously solubilized in dimethyl sulfoxide (DMSO), were prepared in DMEM supplemented with 1% FBS, covering a concentration range from […], and the results were converted to […]. The volume of DMSO in each well was limited to a final concentration not exceeding 2%. Following monolayer formation, the culture medium was aspirated and replaced with 100 μL of the diluted test samples and 100 μL of DMEM containing 1% FBS. The plates were then incubated under the same atmospheric and temperature conditions.
(§4) Two hours prior to end point reading, 20 μL of MTT [3-(4,5-dimethylthiazol-2-yl)-2,5-diphenyltetrazolium bromide] solution (1.0 mg/mL in sterile phosphate-buffered saline, Sigma-Aldrich) was added to each well. The incubation period following sample addition varied according to the cell line: 24 h for MRC-5, 48 h for T24, and 72 h for HeLa, HepG2, and TOV-21G. After the appropriate incubation, absorbance was measured by using a VICTOR X3 microplate reader (PerkinElmer), and data were processed with WorkOut 2.5 software at a wavelength of 490 nm. Formazan formation, resulting from the MTT reduction by metabolically active cells, was used as an indirect measure of cell viability. The percentage of cytotoxicity was calculated using the equation % cytotoxicity = [(A – B)/A] × 100, where A is the optical density (OD4 9 0) of untreated control cells and B is the OD4 9 0 of treated cells.
(§5) Cytotoxicity was expressed as the 50% cytotoxic concentration (CC5 0), representing the concentration of sample required to reduce cell viability by 50% relative to that of the untreated control.

[2] = test system: HepG2 cells; test: Apoptosis/necrosis analysis (annexin V/PI), HepG2; format: cell-based, human; settings: 2.15, 4.62, or 9.25 μM, 48 h
Experimental: Cells in the exponential growth phase were seeded in 12-well plates at a density of 1 × 10^5 cells per well in 3 mL of complete culture medium. Along with the experimental groups, four control groups were included: one without labeling, one labeled only with propidium iodide (PI), one labeled only with Annexin V, and one labeled with both PI and Annexin V. After 24 h, the cells were treated with the compound at concentrations of 2.15, 4.62, 9.25, and 18.50 μM for 48 h. Following the treatment period, the supernatant from each well was transferred to cytometry tubes and centrifuged at 1100 rpm for 10 min. The remaining adhered cells were washed with 1 mL of Hanks’ solution, and 500 μL of trypsin was added to detach the cells. The trypsin action was neutralized by adding 500 μL of complete medium, and the contents (detached cells plus precentrifuged supernatant) were collected into cytometry tubes, which were then centrifuged again at 1100 rpm for 10 min. After centrifugation, the supernatant was discarded. For labeling, Annexin V binding buffer was prepared by diluting 1 mL of component C in 5 mL of distilled water. Next, a 100 μg/mL propidium iodide working solution was prepared by diluting 5 μL of the 1 mg/mL stock (component B) in 45 μL of 1× buffer. […]

[3] = test system: HepG2 cells; test: Clonogenic survival, HepG2; format: cell-based, human; settings: 4.62 and 9.25 μM, 48 h treatment, 10 days colony formation
Experimental: The cells were cultured in DMEM (Sigma-Aldrich, St. Louis, USA) and supplemented with 10% fetal bovine serum (Cultilab Ltda., Campinas, Brazil) and antibiotics (amphotericin). They were incubated at 37 °C in a humidified atmosphere with 5% CO2. Control cell groups, which were not exposed to the compound, were included in the experiments and were conducted in triplicate. The chalcone was dissolved in dimethyl sulfoxide (DMSO) for the assays.
The cells were trypsinized and plated into 24-well plates at a density of 1.0 × 10^5 cells/mL. Afterward, they were treated with the chalcone at concentrations of 2.15, 4.62, 9.25, and 18.50 μM for 48 h. Following treatment, the cells were washed with Hanks’ solution and trypsinized again, and approximately 1000 cells were reseeded into 12-well plates. These cells were incubated for 10 days in a CO2 incubator to allow colony formation. After the incubation period, the culture medium was removed, and the cells were washed with Hanks’ solution. Fixation was performed using 4% formaldehyde for 20 min, followed by […] in 100% methanol for 20 min. The cells were then stained with a 0.5% crystal violet solution prepared in 25% methanol. […] Absorbance was measured at 570 nm using a spectrophotometer, and the results were expressed as the percentage of colonies formed relative to the untreated control group.

[4] = test system: MRC-5: human lung fibroblast cells; test: MTT cytotoxicity assay on MRC-5 cells; format: cell-based; settings: MRC5, 24 h incubation, n = 3, ± standard deviation
Experimental: as §1, §2, §3, §4, §5

CCCc1cc(/C=C/C(=O)c2ccc(C)cc2)c(OC)c(OC)c1 [compound 3, (E)-3-(2,3-Dimethoxy-5-propylphenyl)-1-(p-tolyl)-prop-2-en-1-one]
IC50 ([1]; Homo sapiens, HepG2, MTT, 72 h incubation, n = 3, NA: noncytotoxic at the concentrations tested): 4.5 ± 1.2 µM | SI (HepG2) ([1]; IC50 MRC-5/IC50 HepG2): 12.2 | percentage of apoptotic or necrotic cells, HepG2 [2]: did not result in a significant increase | colony formation, HepG2 [3]: reduction in colony formation | IC50 [4]: 55.5 ± 1.2 µM
